The values below come from publication PMC3669539, “Explant cultures of Rpe65^−/− mouse retina: a model to investigate cone opsin trafficking” (Molecular Vision, 2013).

In this assay the target is T1, mouse UV cone opsin (Mus musculus, UniProt P51491).
T1 construct: gene Opn1sw; pMT-2 vector, COS-1 cell membranes; transducin from bovine retina as read-out
T1 sequence (P51491 1-346): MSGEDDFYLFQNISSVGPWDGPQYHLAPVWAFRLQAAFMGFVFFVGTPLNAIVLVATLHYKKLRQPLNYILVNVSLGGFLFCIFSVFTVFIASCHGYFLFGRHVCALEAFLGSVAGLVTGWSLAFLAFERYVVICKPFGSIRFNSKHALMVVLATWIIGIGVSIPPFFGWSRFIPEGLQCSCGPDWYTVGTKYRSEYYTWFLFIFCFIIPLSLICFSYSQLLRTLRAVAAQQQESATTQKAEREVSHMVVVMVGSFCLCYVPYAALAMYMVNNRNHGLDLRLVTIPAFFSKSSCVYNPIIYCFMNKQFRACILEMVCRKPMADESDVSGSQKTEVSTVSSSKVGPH
Description: transducin activation, radioactive GTPgammaS35 filter-binding assay. Format: biochemical. To be noted: agonist, 20 or 200 µM; COS-1 membranes, bovine transducin 2.5 µM, 3 µM GTPgammaS, pH 6.4, 50 mM MgCl2, dim red light.

Turning to `CC1=C(/C=C/C(C)=C/C=C/C(C)=C/C(=O)O)C(C)(C)CCC1` [all-trans retinoic acid], the “transducin activation, radioactive GTPgammaS35 filter-binding assay” value was “RA, on the other hand, did increase mouse UV-opsin activity significantly”.
